Common to all, as to type: cell-based, human
Series [1] deals with Bax. In words: Bax activation assay. The note with it: lung (A-549) cancer cells; for Bax Fold change: at IC50, vs untreated control; for Bax Conc: compound at IC50. The protocol:
Cells were obtained from American Type Culture Collection, cells were grown in RPMI 1640 containing 10% fetal bovine serum at 37°C, stimulated with the compounds to be tested for caspase8, and lysed with Cell Extraction Buffer. This lysate was diluted in Standard Diluent Buffer over the range of the assay and measured for human active caspase-8 content. […]
4.2.7. Bax activation assay
Bring all reagents, except the human Bax-α Standard, to room temperature for at least 30 minutes prior to opening. The human Bax-α Standard solution should not be left at room temperature for more than 10 minutes. All standards, controls and samples should be run in duplicate. Refer to the Assay Layout Sheet to determine the number of wells to be used and put any remaining wells with the desiccant back into the pouch and seal the ziploc. Store unused wells at 4 °C. Pipet 100 μL of Assay Buffer into the S0 (0 pg/mL standard) wells. Pipet 100 μL of Standards #1 through #6 into the appropriate wells. Pipet 100 μL of the Samples into the appropriate wells. Tap the plate gently to mix the contents. Seal the plate and incubate at room temperature on a plate shaker for 1 hour at ~500 rpm. Empty the contents of the wells and wash by adding 400 μL of wash solution to every well. Repeat the wash 4 more times for a total of 5 washes. After the final wash, empty or aspirate the wells and firmly tap the plate on a lint free paper towel to remove any remaining wash buffer.
Pipet 100 μL of yellow Antibody into each well, except the Blank. Seal the plate and incubate at room temperature on a plate shaker for 1 hour at ~500 rpm. Empty the contents of the wells and wash by adding 400 μL of wash solution to every well. Repeat the wash 4 more times for a total of 5 washes. After the final wash, empty or aspirate the wells and firmly tap the plate on a lint free paper towel to remove any remaining wash buffer. Add 100 μL of blue Conjugate to each well, except the Blank. Seal the plate and incubate at room temperature on a plate shaker for 30 minutes […]
Pipet 100 μL of Substrate Solution into each well. Incubate for 30 minutes at room temperature on a plate shaker at ~500 rpm. Pipet 100 μL Stop Solution to each well. Blank the plate reader against the Blank wells, read the optical density at 450 nm. Calculate the average net Optical Density (OD) bound for each standard and sample by subtracting the average Blank OD from the average OD for each standard and sample. Using linear graph paper, plot the Average Net OD for each standard versus Bax concentration in each standard. Approximate a straight line through the points.
The concentration of Bax in the unknowns can be determined by interpolation. […]

In series [2] the test system is Caspase-8. In words: Caspase-8 activation assay. To be noted: A-594 cells; for Caspase-8 Fold change: at IC50 concentration, vs untreated control; for Caspase-8 Conc: compound at its IC50 concentration. The protocol: When cells get specific signal instructions, they undergo apoptosis, which results in several significant changes. Caspases, considered the main workers in apoptosis, are activated early in the process, cleaving critical cellular components such as nuclear proteins like DNA repair enzymes or structural proteins found in the cytoskeleton that are required for optimal cellular function.
4.2.6. Caspase-8 activation assay […]
caspase8, and lysed with Cell Extraction Buffer. This lysate was diluted in Standard Diluent Buffer over the range of the assay and measured for human active caspase-8 content. (Cells are Plated in a density of 1.2 – 1.8 × 10,000 cells/well in a volume of 100µl complete growth medium + 100 ul of the tested compound per well in a 96-well plate for 24 hours before the enzyme assay for Tubulin.). The absorbance of each microwell was read on a spectro-photometer at 450 nm. A standard curve is prepared from 7human Caspase-8 standard dilutions and human Caspase-8 concentration determined. […]

The subject of series [3] is MCF-10A cells. In words: Cell viability assay (MTT) on normal mammary epithelial cells. The note with it: MCF-10A normal cells, 50 µM, 4 days incubation. Here is the method:
This test investigates the effects of the new compounds 3–16 on normal cell lines to determine their safety. The normal human mammary gland epithelial (MCF-10 A) cell line was used to test the viability of the tested compounds. After 4 days of incubation on MCF-10 A cells within 50 µM of each investigated compound, cell viability was determined using the MTT assay ([Gomaa et al., 2020]; [Marzouk et al., 2020]).
The normal human mammary gland epithelial (MCF-10A) cell line was used to test the viability of the tested compounds. After 4 days of incubation on MCF-10A cells within 50 µM of each investigated compound, cell viability was determined using the MTT assay ([Gomaa et al., 2020]; [Marzouk et al., 2020]). Refer to Supplementary Appendix SA1 (supp. File) for more details.
4.2. Biological evaluation
4.2.1 Cell Viability assay (MTT assay)
MTT assay was performed to investigate the effect of the synthesized compounds on mammary epithelial cells (MCF-10A). The cells were propagated in medium consisting of Ham's F-12 medium/ Dulbecco's modified Eagle's medium (DMEM) (1:1) supplemented with 10% foetal calf serum, 2 mM glutamine, insulin (10 μg/mL), hydrocortisone (500 ng/mL) and epidermal growth factor (20 ng/mL). Trypsin ethylenediamine tetra acetic acid (EDTA) was used to passage the cells after every 2-3 days. 96-well flat-bottomed cell culture plates were used to seed the cells at a density of 10^4 cells mL-1. The medium was aspirated from all the wells of culture plates after 24 h followed by the addition of synthesized compounds (in 200 μL medium to yield a final concentration of 0.1% (v/v) dimethyl sulfoxide) into individual wells of the plates. Four wells were designated to a single compound. The plates were allowed to incubate at 37°C for 96 h. Afterwards, the medium was aspirated and 3-[4,5-dimethylthiazol-2-yl]-2,5-diphenyltetrazolium bromide (MTT) (0.4 mg/mL) in medium was added to each well and subsequently incubated for 3 h. The medium was aspirated and 150 μL dimethyl sulfoxide (DMSO) was added to each well. The plates were vortexed followed by the measurement of absorbance at 540 nm on a microplate reader. The results were presented as inhibition (%) of proliferation in contrast to controls comprising 0.1%

For `CCc1c2cc(Cl)ccc2n2cc(-c3ccccc3)[nH]c(=O)c12` [Compound 16, 8-Chloro-10-ethyl-3-phenylpyrazino [1,2-a]indol-1(2H)-one], in series [1], the “Bax Fold change” value came to 35 and the “Bax Conc” value turned out to be 315 ± 3 pg/mL. Moreover, in series [2], the “Caspase-8 Fold change” value turned out to be 25 and the “Caspase-8 Conc” value is 2.25 ± 0.18 ng/mL. Also, in series [3], the Cell viability % result is listed as “no effect”.
As to `CCc1c2cc(Cl)ccc2n2cc(Cc3ccccc3)n(C)c(=O)c12` [Compound 12, 3-Benzyl-8-chloro-10-ethyl-2-methylpyrazino[1,2-a]indol-1(2H)-one], in series [1], the “Bax Fold change” value is listed as 41 and the “Bax Conc” value was found to be 368 ± 3 pg/mL. Besides, in series [2], the “Caspase-8 Fold change” value is recorded as 29 and the “Caspase-8 Conc” value stood at 2.60 ± 0.20 ng/mL. Besides, in series [3], the Cell viability % result is “no effect”.
